The source of these data is patent publication US8563714B2, “Bridged spiro [2.4] heptane derivatives as ALX receptor and/or FPRL2 agonists” (Actelion Pharmaceuticals Ltd., priority 2009, dated 2013).

One assay deals with T1, human ALX receptor (Homo sapiens, UniProt P25090).
T1 construct: expressed in transfected cells; host or cells: HEK293 (HEK293-hALXR-Gα16)
T1 sequence (P25090 1-351): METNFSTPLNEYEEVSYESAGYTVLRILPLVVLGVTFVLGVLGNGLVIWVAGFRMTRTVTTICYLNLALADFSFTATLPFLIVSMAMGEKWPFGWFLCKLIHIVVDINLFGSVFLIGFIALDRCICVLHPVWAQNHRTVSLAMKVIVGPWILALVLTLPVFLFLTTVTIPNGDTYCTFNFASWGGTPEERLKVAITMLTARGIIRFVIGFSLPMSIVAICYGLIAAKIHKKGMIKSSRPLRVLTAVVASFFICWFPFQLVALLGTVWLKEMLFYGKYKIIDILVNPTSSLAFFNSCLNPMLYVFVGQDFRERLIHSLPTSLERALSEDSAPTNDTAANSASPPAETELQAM
Briefly: Intracellular calcium measurements (FLIPR), agonistic activity in HEK293-hALXR-Gα16 cells. The following applies: Fluo-4 calcium FLIPR, normalized to WKYMVm 10 nM. Type of assay: cell-based. A digest of the protocol: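 Agonist-induced calcium flux was recorded by FLIPR (488/540 nm) in HEK293-hALXR-Gα16 cells pre-loaded with Fluo-4 AM (1 μM, 60 min, 37°C). Peak signal above baseline, after subtracting buffer addition, was expressed relative to WKYMVm at 10 nM final.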

The next assay has as its target T2, human FPRL2 (Homo sapiens, UniProt P25089).
T2 construct: expressed in transfected cells; host or cells: HEK293 (HEK293-hFPRL2-Gα16)
T2 sequence (P25089 1-353): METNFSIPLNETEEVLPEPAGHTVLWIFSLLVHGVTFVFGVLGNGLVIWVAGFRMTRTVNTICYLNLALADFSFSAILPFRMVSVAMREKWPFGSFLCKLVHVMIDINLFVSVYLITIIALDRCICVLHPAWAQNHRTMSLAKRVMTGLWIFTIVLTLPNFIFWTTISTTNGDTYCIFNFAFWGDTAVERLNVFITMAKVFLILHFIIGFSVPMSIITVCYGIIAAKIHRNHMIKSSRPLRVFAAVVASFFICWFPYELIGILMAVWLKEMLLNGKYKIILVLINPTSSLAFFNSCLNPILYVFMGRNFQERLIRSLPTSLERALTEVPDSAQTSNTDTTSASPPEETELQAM
Kind of assay: Intracellular calcium measurements (FLIPR), agonistic activity in HEK293-hFPRL2-Gα16 cells. The format is cell-based. To be noted: Fluo-4 calcium FLIPR, normalized to GLY14-Humanin 100 nM. A digest of the protocol:
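Peak values after baseline subtraction are expressed relative to 100 nM Gly14-Humanin; compounds diluted in assay buffer from 10 mM DMSO stocks.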

For the compound `O=C(NCCCCN1CCCC1)[C@H]1[C@H](C(=O)Nc2nc3ccccc3s2)[C@@H]2C=C[C@H]1C21CC1` (racemic) [Example 144, (5R*)—N^5-(Benzothiazol-2-yl)-(6R*)—N^6-(4-pyrrolidin-1-yl-butyl)-(4S*,7R*)-[4,7-ethenylene-spiro[2.4]heptane]-5,6-dicarboxamide], the concentration for a half-maximal effect (EC50) at human ALX receptor turned out to be 2270 nM; on human FPRL2, 324 nM.

For the compound `O=C(NCCCn1ccnc1)[C@H]1[C@H](C(=O)Nc2ccc(Br)cc2)[C@@H]2CC[C@H]1C21CC1` (racemic) [Example 108, (5R*)—N^5-(4-Bromophenyl)-(6R*)—N^6-(3-(1H-imidazol-1-yl)-propyl)-(4S*,7R*)-[4,7-ethylene-spiro[2.4]heptane]-5,6-dicarboxamide], the 50% effective concentration (EC50) is 4.1 nM on human ALX receptor and 1480 nM at human FPRL2.

With `CC(C)Cc1cc(CNC(=O)[C@H]2[C@H](C(=O)NCCCCN3CCCC3)[C@H]3C=C[C@@H]2C32CC2)no1` (racemic) [Example 201, (5R*)—N^5-(5-(iso-Butyl)-isoxazol-3-yl-methyl)-(6R*)—N^6-(4-pyrrolidin-1-yl-butyl)-(4S*,7R*)-[4,7-ethenylene-spiro[2.4]heptane]-5,6-dicarboxamide], the EC50 at human ALX receptor turned out to be 93 nM; on human FPRL2, 1440 nM.

`Cc1nsc2ccc(NC(=O)[C@H]3[C@H](C(=O)NCCCCN4CCCC4)[C@H]4C=C[C@@H]3C43CC3)cc12` (racemic) [Example 146, (5R*)—N^5-(3-Methyl-benzo[d]isothiazol-5-yl)-(6R*)—N^6-(4-pyrrolidin-1-yl-butyl)-(4S*,7R*)-[4,7-ethenylene-spiro[2.4]heptane]-5,6-dicarboxamide]: the 50% effective concentration (EC50) at human ALX receptor came to 4420 nM; on human FPRL2, 337 nM.

As to `O=C(NCCC(=O)N1CCCC1)[C@H]1[C@H](C(=O)Nc2ccc(Br)cc2)[C@@H]2C=C[C@H]1C21CC1` (racemic) [Example 206, (5R*)—N^5-(4-Bromophenyl)-(6R*)—N^6-(3-pyrrolidino-3-oxopropyl)-(4S*,7R*)-[4,7-ethenylene-spiro[2.4]heptane]-5,6-dicarboxamide], the EC50 on human ALX receptor came to 31 nM; at human FPRL2, 2980 nM.

With `CC(C)CCN1CCC(NC(=O)[C@H]2[C@H](C(=O)NCCc3ccc(Cl)cc3)[C@@H]3C=C[C@H]2C32CC2)CC1` [Example 392, (5R)—N^5-(2-(4-Chlorophenyl)ethyl)-(6R)—N^6—(N-isopentyl-piperidin-4-yl)-(4S,7R)-[4,7-ethenylene-spiro[2.4]heptane]-5,6-dicarboxamide], the figures for the EC50 on human ALX receptor and on human FPRL2 were 10400 nM and 20 nM, respectively.

Regarding `O=C(NCCCCO)[C@H]1[C@H](C(=O)Nc2ncc(Br)s2)[C@@H]2CC[C@H]1C21CC1` [Example 405, (5R)—N^5-(5-Bromothiazol-2-yl)-(6R)—N^6-(4-hydroxybutyl)-(4S,7R)-[4,7-ethylene-spiro[2.4]heptane]-5,6-dicarboxamide], the EC50 at human ALX receptor is 80 nM; at human FPRL2, 7840 nM.

With `O=C(NCCCCN1CC[C@@H](F)C1)[C@H]1[C@H](C(=O)Nc2ccc(Br)cc2)[C@@H]2C=C[C@H]1C21CC1` [Example 219, (5R)—N^5-(4-Bromophenyl)-(6R)—N^6-(4((3R)-fluoropyrrolidino)butyl)-(4S,7R)-[4,7-ethenylene-spiro[2.4]heptane]-5,6-dicarboxamide], the values for the concentration for a half-maximal effect (EC50) on human ALX receptor and at human FPRL2 were 0.3 nM and 174 nM, respectively.

In the case of `COC(=O)CCNC(=O)[C@H]1[C@H](C(=O)NCCCCN2CCCC2)[C@H]2C=C[C@@H]1C21CC1` (racemic) [Example 124, (5R*)—N^5-(2-Methoxycarbonyl-ethyl)-(6R*)—N^6-(4-pyrrolidin-1-yl-butyl)-(4S*,7R*)-[4,7-ethenylene-spiro[2.4]heptane]-5,6-dicarboxamide], the EC50 on human ALX receptor worked out at 52 nM; on human FPRL2, 1150 nM.

Turning to `NC(=O)C(Cc1ccccc1)NC(=O)C1C(C(=O)Nc2ccc(Br)cc2)C2C=CC1C21CC1` (mixture of isomers) [Example 95, (5R*)—N^5-(4-Bromophenyl)-(6R*)—N^6-[(1S)-1-carbamoyl-2-phenyl-ethyl]-(4S*,7R*)-[4,7-ethenylene-spiro[2.4]heptane]-5,6-dicarboxamide], the EC50 on human ALX receptor was determined as 223 nM; on human FPRL2, 1850 nM.

For `O=C(Nc1ncc(Br)s1)C1C(C(=O)NC2CCC(CO)CC2)C2CCC1C21CC1` (single isomer, unassigned) [Example 411], the EC50 amounted to 61 nM at human ALX receptor and 6520 nM on human FPRL2.

In the case of `CN(C)CCCCCNC(=O)[C@H]1[C@H](C(=O)Nc2ccc(Br)cc2)[C@@H]2C=C[C@H]1C21CC1` (racemic) [Example 51, (5R*)—N^5-(4-Bromophenyl)-(6R*)—N^6-(5-dimethyl-amino-pentyl)-(4S*,7R*)-[4,7-ethenylene-spiro[2.4]heptane]-5,6-dicarboxamide], the EC50 at human ALX receptor was 8.2 nM; on human FPRL2, 1490 nM.

Turning to `O=C(NCCCCN1CCCC1)[C@H]1[C@H](C(=O)NCc2csc(Br)c2)[C@@H]2C=C[C@H]1C21CC1` (racemic) [Example 202, (5R*)—N^5-(2-Bromo-thiophen-4-yl-methyl)-(6R*)—N^6-(4-pyrrolidin-1-yl-butyl)-(4S*,7R*)-[4,7-ethenylene-spiro[2.4]heptane]-5,6-dicarboxamide], the half-maximal effective concentration (EC50) at human ALX receptor worked out at 33 nM; at human FPRL2, 75 nM.

As for `CC(C)(CN)CNC(=O)[C@H]1[C@H](C(=O)Nc2ccc(Br)cc2)[C@@H]2C=C[C@H]1C21CC1` (racemic) [Example 10, (5R*)—N^5-(4-Bromophenyl)-(6R*)—N^6-(2,2-dimethyl-3-amino-propyl)-(4S*,7R*)-[4,7-ethenylene-spiro[2.4]heptane]-5,6-dicarboxamide], the 50% effective concentration (EC50) at human ALX receptor was found to be 0.98 nM; on human FPRL2, 726 nM.

Take `COc1ccc(CNC(=O)[C@H]2[C@H](C(=O)NCCCCN3CCCC3)[C@H]3C=C[C@@H]2C32CC2)cc1Cl` (racemic) [Example 374, (5R*)—N^5-(3-Chloro-4-methoxyphenyl-methyl)-(6R*)—N^6-(4-pyrrolidino-butyl)-(4S*,7R*)-[4,7-ethenylene-spiro[2.4]heptane]-5,6-dicarboxamide]: the figures for the concentration for a half-maximal effect (EC50) at human ALX receptor and on human FPRL2 were 2620 nM and 237 nM, respectively.

Consider `CCN(CC)CCNC(=O)[C@H]1[C@H](C(=O)Nc2ccc(Br)cc2)[C@@H]2C=C[C@H]1C21CC1` (racemic) [Example 66, (5R*)—N^5-(4-Bromophenyl)-(6R*)—N^6-(2-diethyl-amino-ethyl)-(4S*,7R*)-[4,7-ethenylene-spiro[2.4]heptane]-5,6-dicarboxamide], for which the concentration for a half-maximal effect (EC50) was 34 nM at human ALX receptor and 2220 nM on human FPRL2.

As for `O=C(NCCCCN1CCCC1)[C@H]1[C@H](C(=O)Nc2ccc(Br)nc2)[C@@H]2C=C[C@H]1C21CC1` [Example 258, (5R)—N^5-(2-Bromo-pyridin-5-yl)-(6R)—N^6-(4-pyrrolidin-1-yl-butyl)-(4S,7R)-[4,7-ethenylene-spiro[2.4]heptane]-5,6-dicarboxamide], the 50% effective concentration (EC50) on human ALX receptor is 1.1 nM; at human FPRL2, 173 nM.

As for `O=C(NCC1CCNCC1)C1C(C(=O)Nc2ncc(Br)s2)C2C=CC1C21CC1` [Example 324, (5R)—N^5-(5-Bromo-thiazol-2-yl)-(6R)—N^6-(piperidin-4-yl-methyl)-(4S,7R)-[4,7-ethenylene-spiro[2.4]heptane]-5,6-dicarboxamide], the EC50 at human ALX receptor was 5.7 nM; at human FPRL2, 1540 nM.

For `O=C(NCCN1CCNC1=O)[C@H]1[C@H](C(=O)Nc2ccc(Br)cc2)[C@@H]2C=C[C@H]1C21CC1` (racemic) [Example 29, (5R*)—N^5-(4-Bromophenyl)-(6R*)—N^6-(2-imidazolidin-2-on-1-yl-ethyl)-(4S*,7R*)-[4,7-ethenylene-spiro[2.4]heptane]-5,6-dicarboxamide], the results for the 50% effective concentration (EC50) on human ALX receptor and at human FPRL2 were 4.8 nM and 5580 nM, respectively.

For `CC(=O)c1csc(CNC(=O)[C@H]2[C@H](C(=O)NCCCN3CCCC3)[C@H]3C=C[C@@H]2C32CC2)n1` (racemic) [Example 264, (5R*)—N^5-(4-Acetyl-thiazol-2-yl-methyl)-(6R*)—N^6-(3-pyrrolidino-propyl)-(4S*,7R*)-[4,7-ethenylene-spiro[2.4]heptane]-5,6-dicarboxamide], the EC50 on human ALX receptor turned out to be 140 nM; at human FPRL2 it was 835 nM.

For `NCC1CCC(NC(=O)C2C(C(=O)Nc3ccc(Br)cc3)C3C=CC2C32CC2)CC1` (single isomer, unassigned) [Example 420], the EC50 on human ALX receptor was 0.13 nM; at human FPRL2, 1150 nM.
